Measured values taken from the CheMixHub viscosity set.

Assay: xn = mol fraction of the nth substance listed

CCCN + CNC(C)=O
308.15 K, 101 kPa
Conditions	viscosity [mPa·s]
x2 = 0.0288	0.3203
x2 = 0.161	0.4788
x2 = 0.322	0.6904
x2 = 0.4077	0.8508
x2 = 0.5208	1.16
x2 = 0.6414	1.544
x2 = 0.7368	1.882
x2 = 0.8217	2.222
x2 = 0.9755	3.191

O=C(O)c1ccco1 + O=C1CCCCCN1
101 kPa, x2 = 0.5
Conditions	viscosity [mPa·s]
303.1 K	179.6
313.2 K	79.63
323.1 K	44.44

CCCN + COCCOC
298.15 K, 101 kPa
Conditions	viscosity [mPa·s]
x1 = 0.0189	0.415
x2 = 0.0057	0.356
x2 = 0.0115	0.357
x2 = 0.032	0.358
x2 = 0.0568	0.36
x2 = 0.0815	0.362
x2 = 0.1075	0.364
x2 = 0.1552	0.368
x2 = 0.1871	0.369
x2 = 0.2467	0.372
x2 = 0.2882	0.373
x2 = 0.3386	0.374
x2 = 0.3526	0.374
x2 = 0.3761	0.374
x2 = 0.4134	0.375
x2 = 0.4707	0.378
x2 = 0.5131	0.38
x2 = 0.5662	0.381
x2 = 0.6099	0.383
x2 = 0.6466	0.386
x2 = 0.7017	0.39
x2 = 0.74	0.392
x2 = 0.8022	0.397
x2 = 0.833	0.399
x2 = 0.8785	0.403
x2 = 0.9167	0.408
x2 = 0.9436	0.411

ClCCOCCCl + FB(F)F
101 kPa, x2 = 0.0939
Conditions	viscosity [mPa·s]
293.15 K	23.94
303.15 K	14.59
313.15 K	9.569
323.15 K	6.506

C=COC(C)=O + CCCCCCCCO
303.15 K, 101.33 kPa
Conditions	viscosity [mPa·s]
x1 = 0.1001	4.448
x1 = 0.2008	3.155
x1 = 0.3002	2.302
x1 = 0.4017	1.705
x1 = 0.4997	1.279
x1 = 0.6008	0.965
x1 = 0.6993	0.743
x1 = 0.7981	0.577
x1 = 0.8965	0.459

CCCCOC(C)=O + c1ccccc1
viscosity [mPa·s], 101 kPa
Conditions	298.15 K	308.15 K
x1 = 0.0487	0.601	0.527
x1 = 0.1494	0.598	0.528
x1 = 0.2494	0.598	0.532
x1 = 0.3494	0.6	0.536
x1 = 0.4454	0.604	0.541
x1 = 0.4954	0.607	0.544
x1 = 0.5489	0.611	0.548
x1 = 0.6497	0.62	0.556
x1 = 0.7503	0.632	0.565
x1 = 0.8496	0.647	0.575
x1 = 0.9424	0.663	0.586

Oc1ccccc1Cl + Nc1ccccc1
101 kPa
Conditions	viscosity [mPa·s]
293.15 K, x1 = 0.1176	5.78
293.15 K, x1 = 0.2278	7.74
293.15 K, x1 = 0.3271	9.6
293.15 K, x1 = 0.3874	10.56
293.15 K, x1 = 0.4366	11.24
293.15 K, x1 = 0.4885	11.66
293.15 K, x1 = 0.5271	11.76
293.15 K, x1 = 0.5756	11.48
293.15 K, x1 = 0.6117	10.96
293.15 K, x1 = 0.7174	9.04
293.15 K, x1 = 0.8625	6.3
298 K, x1 = 0.1032	4.945
298 K, x1 = 0.2004	6.157
298 K, x1 = 0.3011	7.228
298 K, x1 = 0.4069	8.07
298 K, x1 = 0.5008	8.81
298 K, x1 = 0.6002	8
298 K, x1 = 0.7016	6.99
298 K, x1 = 0.7852	5.942
298 K, x1 = 0.9025	4.443
303 K, x1 = 0.1032	4.142
303 K, x1 = 0.2004	5.008
303 K, x1 = 0.3011	5.792
303 K, x1 = 0.4069	6.329
303 K, x1 = 0.5008	6.859
303 K, x1 = 0.6002	6.232
303 K, x1 = 0.7016	5.602
303 K, x1 = 0.7852	4.74
303 K, x1 = 0.9025	3.702
303.15 K, x1 = 0.1176	4.05
303.15 K, x1 = 0.2278	5.06
303.15 K, x1 = 0.3271	5.93
303.15 K, x1 = 0.3874	6.39
303.15 K, x1 = 0.4366	6.72
303.15 K, x1 = 0.4885	6.93
303.15 K, x1 = 0.5271	6.95
303.15 K, x1 = 0.5756	6.86
303.15 K, x1 = 0.6117	6.7
303.15 K, x1 = 0.7174	5.8
303.15 K, x1 = 0.8625	4.31
308 K, x1 = 0.1032	3.556
308 K, x1 = 0.2004	4.265
308 K, x1 = 0.3011	4.728
308 K, x1 = 0.4069	4.979
308 K, x1 = 0.5008	5.417
308 K, x1 = 0.6002	4.922
308 K, x1 = 0.7016	4.511
308 K, x1 = 0.7852	3.826
308 K, x1 = 0.9025	3.108
313 K, x1 = 0.1032	3.11
313 K, x1 = 0.2004	3.638
313 K, x1 = 0.3011	3.9
313 K, x1 = 0.4069	4.024
313 K, x1 = 0.5008	4.382
313 K, x1 = 0.6002	3.966
313 K, x1 = 0.7016	3.75
313 K, x1 = 0.7852	3.283
313 K, x1 = 0.9025	2.744
313.15 K, x1 = 0.1176	2.945
313.15 K, x1 = 0.2278	3.54
313.15 K, x1 = 0.3271	3.99
313.15 K, x1 = 0.3874	4.2
313.15 K, x1 = 0.4366	4.33
313.15 K, x1 = 0.4885	4.39
313.15 K, x1 = 0.5271	4.4
313.15 K, x1 = 0.5756	4.34
313.15 K, x1 = 0.6117	4.24
313.15 K, x1 = 0.7174	3.79
313.15 K, x1 = 0.8625	3.01
318 K, x1 = 0.1032	2.671
318 K, x1 = 0.2004	3.036
318 K, x1 = 0.3011	3.241
318 K, x1 = 0.4069	3.322
318 K, x1 = 0.5008	3.611
318 K, x1 = 0.6002	3.27
318 K, x1 = 0.7016	3.137
318 K, x1 = 0.7852	2.853
318 K, x1 = 0.9025	2.446

C[NH2+]C(C)Cc1ccc2c(c1)OCO2.[Cl-] (configuration not stated) + O
viscosity [mPa·s], 100 kPa
Conditions	293.15 K	298.15 K	303.15 K	308.15 K	313.15 K
x1 = 0.001729	1.063	0.942	0.842	0.758	0.686
x1 = 0.003622	1.125	0.995	0.888	0.798	0.721
x1 = 0.00541	1.18	1.042	0.929	0.834	0.752
x1 = 0.006269	1.206	1.065	0.949	0.851	0.767
x1 = 0.0072	1.233	1.088	0.969	0.869	0.783
